The source made the active and inactive calls. The calls are words filed in the database; no cut-off is given here.
Experiments:
[1] = Cytotoxicity against HBE (human bronchial epithelial) cells assessed as reduction in cell viability incubated for 48 hrs by MTT assay; assay type: toxicity, cell-based
[2] = system: NCI-H446; test: Antiproliferative activity against human NCI-H446 cells assessed as reduction in cell viability incubated for 48 hrs by MTT assay; assay type: functional, cell-based; conditions: NCI-H446, 48 h
[3] = system: A549; test: Antiproliferative activity against human A549 cells assessed as reduction in cell viability incubated for 48 hrs by MTT assay; assay type: functional, cell-based; conditions: A549, 48 h
[4] = Cytotoxicity against human HL7702 cells assessed as reduction in cell viability incubated for 48 hrs by MTT assay; assay type: toxicity, cell-based; conditions: HL7702 (L02) cells
[5] = system: HepG2; test: Antiproliferative activity against human HepG2 cells assessed as reduction in cell viability incubated for 48 hrs by MTT assay; assay type: functional, cell-based; conditions: HepG2, 48 h
[6] = system: NCI-H446; test: Induction of apoptosis in human NCI-H446 cells assessed as crumpled nuclei at 2 uM incubated for 24 hrs by DAPI staining based fluorescence inverted microscopic analysis; assay type: functional, cell-based

SMILES: C=CCc1ccc(OCCCOC(=O)Cc2c3[n+](cc4c(OC)c(OC)ccc24)CCc2cc4c(cc2-3)OCO4)c(-c2ccc(OCCC)c(CC=C)c2)c1
- IC50 at 48 h [1]: 9.5 µM
- IC50 [2]: 3.74 µM
- IC50 [3]: 5.82 µM
- IC50 at 48 h [4]: 2.6 µM
- IC50 [5]: 3.87 µM

SMILES: C=CCc1ccc(OCCCOC(=O)Cc2c3[n+](cc4c(OC)c(OC)ccc24)CCc2cc4c(cc2-3)OCO4)c(-c2ccc(OC)c(CC=C)c2)c1
- IC50 at 48 h [1]: 19.4 µM
- IC50 [2]: 7.08 µM
- IC50 [3]: > 10 µM
- IC50 at 48 h [4]: 6.5 µM
- IC50 [5]: 6.6 µM

SMILES: C=CCc1ccc(OCCCCCCCCCC[n+]2ccc(/C=C/c3c[nH]c4ccccc34)cc2)c(-c2ccc(OCCC)c(CC=C)c2)c1
- IC50 at 48 h [1]: 17.3 µM
- IC50 [2]: 7.57 µM
- IC50 [3]: 8.07 µM
- IC50 at 48 h [4]: 6.98 µM
- IC50 [5]: 5.23 µM

SMILES: C=CCc1ccc(OCCCCCCCCCC[n+]2ccc(/C=C/c3c[nH]c4ccccc34)cc2)c(-c2ccc(OC)c(CC=C)c2)c1
- IC50 at 48 h [1]: 7.47 µM
- IC50 [2]: 3.01 µM
- IC50 [3]: 5.69 µM
- IC50 at 48 h [4]: 4.03 µM
- IC50 [5]: 3.37 µM

SMILES: C=CCc1ccc(OCCC)c(-c2ccc(OC(=O)Cc3c4[n+](cc5c(OC)c(OC)ccc35)CCc3cc5c(cc3-4)OCO5)c(CC=C)c2)c1
- IC50 at 48 h [1]: 17.9 µM
- IC50 [2]: 5.06 µM
- IC50 [3]: 5.98 µM
- IC50 at 48 h [4]: 3.39 µM
- IC50 [5]: 3.02 µM

SMILES: C=CCc1ccc(OCCCCCCCCCCOC(=O)Cc2c3[n+](cc4c(OC)c(OC)ccc24)CCc2cc4c(cc2-3)OCO4)c(-c2ccc(OC)c(CC=C)c2)c1
- IC50 at 48 h [1]: 5.83 µM
- IC50 [2]: 3.01 µM
- IC50 [3]: 1.88 µM
- IC50 at 48 h [4]: 5 µM
- IC50 [5]: 1.94 µM

SMILES: C=CCc1ccc(OCCC)c(-c2ccc(OCCCCCC[n+]3ccc(/C=C/c4c[nH]c5ccccc45)cc3)c(CC=C)c2)c1
- IC50 at 48 h [1]: 7.78 µM
- IC50 [2]: 2.88 µM
- IC50 [3]: 2.04 µM
- IC50 at 48 h [4]: 1.85 µM
- IC50 [5]: 2.03 µM
- Activity [6]: Active

SMILES: C=CCc1ccc(OCCC)c(-c2ccc(OCCCCCCCCCC[n+]3ccc(/C=C/c4c[nH]c5ccccc45)cc3)c(CC=C)c2)c1
- IC50 at 48 h [1]: 16.5 µM
- IC50 [2]: 6.51 µM
- IC50 [3]: 9.45 µM
- IC50 at 48 h [4]: 12.3 µM
- IC50 [5]: 8.13 µM

SMILES: CCCCCCCCCCc1c2[n+](cc3c(OC)c(OC)ccc13)CCc1cc3c(cc1-2)OCO3
- IC50 at 48 h [1]: 1.52 µM
- IC50 [2]: 0.83 µM
- IC50 [3]: 1.18 µM
- IC50 at 48 h [4]: 3.8 µM
- IC50 [5]: 13.3 µM

SMILES: C=CCc1ccc(OC)c(-c2ccc(OCCCCCCOC(=O)Cc3c4[n+](cc5c(OC)c(OC)ccc35)CCc3cc5c(cc3-4)OCO5)c(CC=C)c2)c1
- IC50 at 48 h [1]: 5.09 µM
- IC50 [2]: 1.4 µM
- IC50 [3]: 2.87 µM
- IC50 at 48 h [4]: 4.37 µM
- IC50 [5]: 1.74 µM

SMILES: CCCCCCCCc1c2[n+](cc3c(OC)c(OC)ccc13)CCc1cc3c(cc1-2)OCO3
- IC50 at 48 h [1]: 0.79 µM
- IC50 [2]: 2.65 µM
- IC50 [3]: 1.72 µM
- IC50 at 48 h [4]: 14.7 µM
- IC50 [5]: 18.7 µM

SMILES: C=CCc1ccc(OCCC)c(-c2ccc(OCCCOC(=O)Cc3c4[n+](cc5c(OC)c(OC)ccc35)CCc3cc5c(cc3-4)OCO5)c(CC=C)c2)c1
- IC50 at 48 h [1]: 6.7 µM
- IC50 [2]: 2.44 µM
- IC50 [3]: 3.5 µM
- IC50 at 48 h [4]: 3.39 µM
- IC50 [5]: 2.23 µM

SMILES: C[n+]1ccc(/C=C/c2c[nH]c3ccccc23)cc1
- IC50 at 48 h [1]: > 60 µM
- IC50 [2]: > 60 µM
- IC50 [3]: > 60 µM
- IC50 at 48 h [4]: > 60 µM
- IC50 [5]: > 60 µM

SMILES: C=CCc1ccc(OCCCCCC[n+]2ccc(/C=C/c3c[nH]c4ccccc34)cc2)c(-c2ccc(OC)c(CC=C)c2)c1
- IC50 at 48 h [1]: 6.17 µM
- IC50 [2]: 2.7 µM
- IC50 [3]: 2.54 µM
- IC50 at 48 h [4]: 3.88 µM
- IC50 [5]: 1.79 µM

SMILES: C=CCc1ccc(OCCC)c(-c2ccc(OCCCCCCOC(=O)Cc3c4[n+](cc5c(OC)c(OC)ccc35)CCc3cc5c(cc3-4)OCO5)c(CC=C)c2)c1
- IC50 at 48 h [1]: 3.59 µM
- IC50 [2]: 1.56 µM
- IC50 [3]: 1.59 µM
- IC50 at 48 h [4]: 4.28 µM
- IC50 [5]: 1.38 µM

SMILES: C=CCc1ccc(OCCCCCCOC(=O)Cc2c3[n+](cc4c(OC)c(OC)ccc24)CCc2cc4c(cc2-3)OCO4)c(-c2ccc(OC)c(CC=C)c2)c1
- IC50 at 48 h [1]: 7.06 µM
- IC50 [2]: 3.37 µM
- IC50 [3]: 3.44 µM
- IC50 at 48 h [4]: 5.7 µM
- IC50 [5]: 2.39 µM

SMILES: C=CCc1ccc(OC)c(-c2ccc(OCCCCCCCCCC[n+]3ccc(/C=C/c4c[nH]c5ccccc45)cc3)c(CC=C)c2)c1
- IC50 at 48 h [1]: 13.5 µM
- IC50 [2]: 5.21 µM
- IC50 [3]: 10.6 µM
- IC50 at 48 h [4]: 7.09 µM
- IC50 [5]: 2.73 µM

SMILES: C=CCc1ccc(OCCC)c(-c2ccc(OCCCCCCCCCCOC(=O)Cc3c4[n+](cc5c(OC)c(OC)ccc35)CCc3cc5c(cc3-4)OCO5)c(CC=C)c2)c1
- IC50 at 48 h [1]: 10.7 µM
- IC50 [2]: 7.87 µM
- IC50 [3]: 6.21 µM
- IC50 at 48 h [4]: 4.39 µM
- IC50 [5]: 7.89 µM
